Experimental data reported in patent US20040241766A1, “Carbamazepine assay” (priority 2003, published 2004).
Several values for one entry are separate records, joined by “and”; a condition that tells them apart may be missing. Identical values can stand only once.

Columns and labels:
[1] = Serum CBZ concentration in CBZ-treated rats (competitive avidin assay vs HPLC with UV detection); format: in vivo; details: rat serum, 3.75 g CBZ/kg diet for 68 days, Serum #1-#3
Method: Biotinylated bovine serum albumin (BSA) was synthesized by mixing 50 mL of 10 g/L BSA in ice-cold 0.1 mol/L NaHCO3 (pH 7.5) with 5 mL of a 12 g/L N-hydroxysuccinimide ester (NHS-biotin) in dimethyl sulfoxide overnight at 4° C. The mixture was dialyzed for 48 h with gentle stirring at 4° C.
A flat bottom 96-well microtiter plate (Nunc Maxisorp, Fisher Scientific, Pittsburgh, Pa.) was coated with 200 μL of a 1:2 dilution of biotinylated BSA in coating buffer (50 mmol/L bicarbonate, pH 9.0) and incubated at 4° C. for at least 1 h (up to 48 h).
A 10 g/L stock of CBZ was made by dissolving CBZ in methanol and then this was diluted 1:2 in Hepes buffer (0.1 mol/L Hepes, 1 mol/L NaCl, pH 7.0) to make a concentration of 5 g/L. 5 μL of this stock was diluted in 295 μL serum (collected immediately after a rat had been killed by exsanguination and whole blood was allowed to clot 10 min before centrifugation at 10,000× g for 10 min, and serum recovered). […]
The coated flat bottom plate was washed three times with 0.05% (v/v) tween-20 and before the wells dried out, 100 μL of the contents of the U-bottom plate were added to the flat bottom plate and incubated for 45 min—up to 4 h. […] After 45 min, 50 μL of 2 mol/L H2SO4 was added to the wells and the absorbance was measured at 490-650 nm in a plate reader spectrophotometer (Molecular Devices, Sunnyvale, Calif.). […]

[2] = humans, serum concentration; cited from earlier work
avidin = target: T1, avidin (Gallus gallus, UniProt P02701); experiment: HABA assay: displacement of HABA from avidin; format: binding
T1 construct: purchased Pierce Chemical Company
T1 sequence (P02701 25-152): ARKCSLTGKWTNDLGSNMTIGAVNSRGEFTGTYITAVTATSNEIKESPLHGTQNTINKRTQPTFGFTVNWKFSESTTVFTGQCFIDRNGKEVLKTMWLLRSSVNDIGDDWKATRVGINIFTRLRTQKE
Method: In order to determine whether CBZ can bind to avidin, a solution of 10 mg/L CBZ dissolved in methanol was used in a HABA assay (Pierce Chemical Company, Pittsburgh, Pa.). When [2-(4′-hydroxyazobenzene) benzoic acid (HABA) is added in excess of avidin (Pierce Chemical Company, Pittsburgh, Pa.), an absorption at 500 nm is observed and a change in color occurs from yellow to red. This absorption is decreased proportionately when biotin is added since biotin displaces the HABA dye due to its higher affinity for avidin. The assay can be performed in a single cuvette by noting the A500 of the avidin-HABA solution before and after addition of the biotin-containing sample; the change in absorbance can then be related to the amount of biotin in the sample by using the extinction coefficient of the complex.
This change in absorbance is equivalent to 0.17 μmoles biotin-competing capacity of CBZ/ml reaction mixture. This amount was present according to a calculation equation described by the manufacturer.

serum CBZ concentration, HPLC ([1]; HPLC with UV detection): 4.7 mg/L and 3.3 mg/L
serum CBZ concentration, Competitive Assay ([1]; avidin-HRP/biotinylated BSA competitive assay): 4.8 mg/L and 3.8 mg/L and 3.0 mg/L
change in absorbance at 500 nm (avidin; 10 mg/L CBZ in methanol added to avidin-HABA solution): 0.5633
biotin-competing capacity of CBZ/ml reaction mixture (avidin; calculated from change in absorbance by manufacturer's equation, 10 mg/L CBZ): 0.17 µmol
Compound: NC(=O)N1c2ccccc2C=Cc2ccccc21 [CBZ, 5-carbamoyl-5H-dibenz[b,f]azepine]
therapeutic range [2]: 4 to 12 mg/L
binding to avidin relative to HABA (avidin; HABA displacement): binds more tightly to avidin than does HABA
